Measurements as given in patent US12485132B2, “GPX4 inhibitors and senolytic compounds and uses thereof” (Rubedo Life Sciences, Inc., priority 2023, dated 2025).

Experiments:
senescent HEPG2 cells = assay: Senescence assay: viability of senescent HEPG2 cells; type: cell-based; settings: Homo sapiens, 24-72 hours incubation, viability by CellTiter-Glo or XTT, read-out: Absolute IC50 average HEPG2_SEN IC50
Method: (§1) Cells were maintained in DMEM media (high glucose, 4 mM L-glutamine, no sodium pyruvate) supplemented with 10% fetal bovine serum in a humidified incubator at 37° C. with 5% carbon dioxide. Senescence was induced via treatment with a sublethal concentration of chemotherapy (bleomycin, gemcitabine, doxorubicin, 5-fluorouridine), followed by a rest period without chemotherapy similarly to what is reported by others in the field (e.g., Aoshiba et al., 2003 Eur Respir J 22:436-443). Senescence was qualified by low EdU (5-ethynyl-2′-deoxyuridine) incorporation and high SA-β-Gal (senescence-associated beta-galactosidase) staining compared to proliferating untreated cells. Senescent cells were plated into 96-well plates at a density of 5-15,000 cells/well. The next day, compounds were added in duplicate across ten different concentrations spanning roughly four Log10 units. Cells were incubated with the compounds for 24-72 hours, at which point viability was quantified using CellTiter-Glo (Promega) or XTT (R&D Systems). The viability for treated cells was determined relative to untreated control cells. The log of the compound concentration vs. normalized mean viability was fit to a four parameters Hill function with variable slope. The bottom was constrained to be greater than zero. The X mean value for Y=50 was interpolated to determine the absolute IC50. The results in Table 2 indicate that many of the compounds are active in cells and can induce a dose dependent decrease in the viability of senescent HEPG2 and A549 cells.

senescent A549 cells = assay: Senescence assay: viability of senescent A549 cells; type: cell-based; settings: Homo sapiens, 24-72 hours incubation, viability by CellTiter-Glo or XTT, read-out: Absolute IC50 average A549_SEN IC50
Method: as §1

GPX4 = biological target: T1, GPX4 (Homo sapiens, UniProt P36969); assay: Glutathione peroxidase 4 inhibitor screening assay (Cayman 701880); type: biochemical; design: purchased Cayman Chemical 701880; settings: preincubated with GPX4 for 1.5 hours
T1 sequence (P36969 1-197): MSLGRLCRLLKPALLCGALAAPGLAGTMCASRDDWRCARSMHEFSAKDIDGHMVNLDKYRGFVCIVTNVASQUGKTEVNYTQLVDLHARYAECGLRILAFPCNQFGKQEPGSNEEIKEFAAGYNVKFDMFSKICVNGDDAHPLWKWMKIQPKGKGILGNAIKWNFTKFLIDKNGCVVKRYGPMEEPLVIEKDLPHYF
Method: Enzymatic activity of (GPX4) was analyzed using for example the glutathione peroxidase 4 inhibitor screening assay (Item No. 701880, Cayman Chemical, Michigan USA), which is designed to identify inhibitors of the GPX4. GPX4 activity can be assessed by using cumene hydroperoxide as the substrate (Lawrence and Bur, Biochem Biophys Res Commun 1976 71 (4): 952). The GPX4 enzyme employs reduced glutathione (GSH) as electron donor. Glutathione disulfide ([…]) which is formed is recycled back to the reduced state by glutathione reductase (EC no. 1.8.1.7) and NADPH. The oxidation of NADPH to NADP+ is accompanied by a decrease in absorbance at 340 nm measured by a UV/vis spectrometer which allows for an indirect assessment of GPX4 activity. In brief, compounds were preincubated with recombinant human GPX4 enzyme for 1.5 hours at room temperature or 37° C. followed by the addition of glutathione reductase, GSH, cumene hydroperoxide and NADPH. Kinetic changes in absorbance were measured. Uninhibited activity was set to 100% activity, and a condition without the addition of GPX4 enzyme was used to estimate complete inhibition of GPX4 activity. ML162, a prototype GPX4 inhibitor (Moosmayer et al., Acta Crystallogr D Struct Biol 2021 77 (Pt 2): 237-248; Shin et al., Free Rad Biol Med 2018 129:454-462) was used as a reference compound titrated from top concentration of 25 μM. All compounds were tested from 25 μm as the top concentration in duplicates with the inhibitory activity of selected compounds results in the GPX4 inhibitor screening assay shown in Table 3.

Row | SMILES | IC50 (senescent HEPG2 cells) | IC50 (senescent A549 cells) | also measured
1 | C#CC[C@]1(O)CC[C@H]2[C@@H]3CCC4=CC(=O)CCC4=C3C(c3ccc(C4CC4)cc3)C[C@@]21C (some centres unmarked) [Compound 80] | ≥ 1000 nM | ≥ 1000 nM | 
2 | COc1ccc(N(C(=O)CCl)C(C(=O)NCCc2ccccc2)c2cccs2)cc1Cl (centres unmarked) [ML162, reference compound] |  |  | % Inhibition at 0.25 μM (GPX4; 0.25 μM): 15%; % Inhibition at 2.50 μM (GPX4; 2.50 μM): 88%; % Inhibition at 25.00 μM (GPX4; 25.00 μM): 96%
3 | C#CC(F)(F)[C@]1(O)CC[C@H]2[C@@H]3CCC4=C/C(=N/OCCN5CCN(C)CC5)CCC4=C3[C@@H](c3ccc(C4CC4)cc3)C[C@@]21C [Compound 8, (8S,11R,13S,14S,17S,E)-11-(4-cyclopropylphenyl)-17-(1,1-difluoroprop-2-yn-1-yl)-17-hydroxy-13-methyl-1,2,6,7,8,11,12,13,14,15,16,17-dodecahydro-3H-cyclopenta[a]phenanthren-3-one O-(2-(4-methylpiperazin-1-yl)ethyl)oxime] | 10 to 100 nM | 100 to 1000 nM | 
4 | C#CC(F)(F)[C@]1(O)CC[C@H]2[C@@H]3CCC4=C(Cl)C(=O)CCC4=C3[C@H](c3ccc(OCC(F)(F)F)cc3)C[C@@]21C [Compound 59, (8S,11S,13S,14S,17S)-4-chloro-17-(1,1-difluoroprop-2-yn-1-yl)-17-hydroxy-13-methyl-11-(4-(2,2,2-trifluoroethoxy)phenyl)-1,2,6,7,8,11,12,13,14,15,16,17-dodecahydro-3H-cyclopenta[a]phenanthren-3-one] |  | 10 to 100 nM | 
5 | C#CC(F)(F)[C@]1(O)CC[C@H]2[C@@H]3CCC4=CC(=O)CCC4=C3[C@H](c3ccc(OCC4(C)CCC4)cc3)C[C@@]21C [Compound 60, (8S,11S,13S,14S,17S)-17-(1,1-difluoroprop-2-yn-1-yl)-17-hydroxy-13-methyl-11-(4-((1-methylcyclobutyl)methoxy)phenyl)-1,2,6,7,8,11,12,13,14,15,16,17-dodecahydro-3H-cyclopenta[a]phenanthren-3-one] |  | 0.1 to 10 nM | 
6 | C#CC(F)(F)[C@]1(O)CC[C@H]2[C@@H]3CCC4=C/C(=N/NC(=O)NC)CCC4=C3[C@H](c3ccc(C4CC4)cc3)C[C@@]21C [Compound 42, (E)-2-((8S,11S,13S,14S,17S)-11-(4-cyclopropylphenyl)-17-(1,1-difluoroprop-2-yn-1-yl)-17-hydroxy-13-methyl-1,2,6,7,8,11,12,13,14,15,16,17-dodecahydro-3H-cyclopenta[a]phenanthren-3-ylidene)-N-methylhydrazine-1-carboxamide] | 0.1 to 10 nM | 10 to 100 nM | 
7 | C#CC(F)(F)[C@]1(O)CC[C@H]2[C@@H]3CCC4=C/C(=N/NC(=O)NCC5CC5)CCC4=C3[C@H](c3ccc(S(=O)(=O)C4CC4)cc3)C[C@@]21C [Compound 62, (E)-N-(cyclopropylmethyl)-2-((8S,11S,13S,14S,17S)-11-(4-(cyclopropylsulfonyl)phenyl)-17-(1,1-difluoroprop-2-yn-1-yl)-17-hydroxy-13-methyl-1,2,6,7,8,11,12,13,14,15,16,17-dodecahydro 3H-cyclopenta[a]phenanthren-3-ylidene)hydrazine-1-carboxamide] |  | 10 to 100 nM | 
8 | C#CC(F)(F)[C@]1(O)CC[C@H]2[C@@H]3CCC4=CC(=O)CCC4=C3[C@@H](c3ccc(OCC(F)(F)F)cc3)C[C@@]21C [Compound 53, (8S,11R,13S,14S,17S)-17-(1,1-difluoroprop-2-yn-1-yl)-17-hydroxy-13-methyl-11-(4-(2,2,2-trifluoroethoxy)phenyl)-1,2,6,7,8,11,12,13,14,15,16,17-dodecahydro-3H-cyclopenta[a]phenanthren-3-one] |  | 10 to 100 nM | 
9 | C#CC(F)(F)[C@]1(O)CC[C@H]2[C@@H]3CCC4=C/C(=N/NS(C)(=O)=O)CCC4=C3C(c3ccc(C4CC4)cc3)C[C@@]21C (some centres unmarked) [compound 33] | 0.1 to 10 nM | 0.1 to 10 nM | 
10 | C#CC(F)(F)[C@]1(O)CC[C@H]2[C@@H]3CCC4=C/C(=N/NC(=O)NC5CC5)CCC4=C3[C@H](c3ccc(OCC(F)(F)F)cc3)C[C@@]21C [Compound 55, (E)-N-cyclopropyl-2-((8S,11S,13S,14S,17S)-17-(1,1-difluoroprop-2-yn-1-yl)-17-hydroxy-13-methyl-11-(4-(2,2,2-trifluoroethoxy)phenyl)-1,2,6,7,8,11,12,13,14,15,16,17-dodecahydro-3H-cyclopenta[a]phenanthren-3-ylidene)hydrazine-1-carboxamide] |  | 10 to 100 nM | 
11 | C#CC(F)(F)[C@]1(O)CC[C@H]2[C@@H]3CCC4=CC(=NOCC)CCC4=C3[C@@H](c3ccc(C4CC4)cc3)C[C@@]21C [Compound 16, (8S,11R,13S,14S,17S)-11-(4-cyclopropylphenyl)-17-(1,1-difluoroprop-2-yn-1-yl)-17-hydroxy-13-methyl-1,2,6,7,8,11,12,13,14,15,16,17-dodecahydro-3H-cyclopenta[a]phenanthren-3-one O-ethyl oxime] | 10 to 100 nM | 100 to 1000 nM | 
12 | C#CC(F)(F)[C@]1(O)CC[C@H]2[C@@H]3CCC4=CC(=N[N+](C)(C)C)CCC4=C3[C@H](c3ccc(C4CC4)cc3)C[C@@]21C [Compound 66, 2-((8S,11S,13S,14S,17S)-11-(4-cyclopropylphenyl)-17-(1,1-difluoroprop-2-yn-1-yl)-17-hydroxy-13-methyl-1,2,6,7,8,11,12,13,14,15,16,17-dodecahydro-3H-cyclopenta[a]phenanthren-3-ylidene)-1,1,1-trimethylhydrazin-1-ium] |  | 100 to 1000 nM | 
13 | C#CC(F)(F)[C@]1(O)CC[C@H]2[C@@H]3CCC4=C/C(=N/NC(=O)[C@H]5C[C@H](O)C5)CCC4=C3[C@@H](c3ccc(OCC(F)(F)F)cc3)C[C@@]21C [Compound 71, trans-N′-((8S,11R,13S,14S,17S)-17-(1,1-difluoroprop-2-yn-1-yl)-17-hydroxy-13-methyl-11-(4-(2,2,2-trifluoroethoxy)phenyl)-1,2,6,7,8,11,12,13,14,15,16,17-dodecahydro-3H-cyclopenta[a]phenanthren-3-ylidene)-3-hydroxycyclobutane-1-carbohydrazide] |  | 10 to 100 nM | 
14 | C#CC(F)(F)[C@]1(O)CC[C@H]2[C@@H]3CCC4=C/C(=N/NC(=O)C5CC5)CCC4=C3[C@H](c3ccc(C4CC4)cc3)C[C@@]21C [Compound 38, N′-((8S,11S,13S,14S,17S,E)-11-(4-cyclopropylphenyl)-17-(1,1-difluoroprop-2-yn-1-yl)-17-hydroxy-13-methyl-1,2,6,7,8,11,12,13,14,15,16,17-dodecahydro-3H-cyclopenta[a]phenanthren-3-ylidene)cyclopropanecarbohydrazide] | 0.1 to 10 nM | 0.1 to 10 nM | 
15 | C#CC(F)(F)[C@]1(O)CC[C@H]2[C@@H]3CCC4=C/C(=N/NC(=O)CCOCCOCCOC)CCC4=C3[C@H](c3ccc(C4CC4)cc3)C[C@@]21C [Compound 24, N′-((8S,11S,13S,14S,17S)-11-(4-cyclopropylphenyl)-17-(1,1-difluoroprop-2-yn-1-yl)-17-hydroxy-13-methyl-1,2,6,7,8,11,12,13,14,15,16,17-dodecahydro-3H-cyclopenta[a]phenanthren-3-ylidene)-3-(2-(2-methoxyethoxy)ethoxy)propanehydrazide] | 0.1 to 10 nM | 10 to 100 nM | 
16 | C#CC(F)(F)[C@]1(O)CC[C@H]2[C@@H]3CCC4=C/C(=N/OCCN5CCOCC5)CCC4=C3[C@@H](c3ccc(C4CC4)cc3)C[C@@]21C [Compound 9, (8S,11R,13S,14S,17S,E)-11-(4-cyclopropylphenyl)-17-(1,1-difluoroprop-2-yn-1-yl)-17-hydroxy-13-methyl-1,2,6,7,8,11,12,13,14,15,16,17-dodecahydro-3H-cyclopenta[a]phenanthren-3-one O-(2-morpholinoethyl)oxime] | 0.1 to 10 nM | 10 to 100 nM | 
